Measurements from patent US20070148703A1, “Method of screening remedy for breast cancer” (Genomembrane, Inc., priority 2003, published 2007).
“And” between values parts separate entries of the source, which are not always exact repeats. Identical values can stand only once.

Legend:
Format in all cases: cell-based, human
MCF-7 cells = experiment: MCF-7 cell proliferation with estrone-3-sulfate or estradiol, with or without BSP
Method: It was examined whether cell proliferation promoting effect on MCF-7 cells (ATCC-HTB22) by estrone-3-sulfate is inhibited by suppressing intracellular accumulation of estrone-3-sulfate. MCF-7 cells were seeded on a 96-well plate at a concentration of 8×10^4 cells/cm^2, and cultured for 1 day. Then, a medium containing estrone-3-sulfate (Sigma Chemicals) at various concentrations, ranging from 10 pM to 10 μM, and 100 μM of bromosulfophtalein (BSP: Sigma Chemicals), and a medium containing estradiol (Sigma Chemicals) at various concentrations, ranging from 1 pM to 10 nM, and 100 μM of BSP were added respectively, and culture was conducted for 3 more days. Subsequently, cell amount was measured.
However, this is considered to be estrogen activity by BSP itself or metabolite thereof. This effect decreased relatively with the increase of estrogen concentration. […] Accordingly, it is considered that the uptake of estrone-3-sulfate into the cells was inhibited by BSP, and that of estradiol, which is highly lipid-soluble, was not inhibited, and therefore there was no change in cell proliferation promoting effect.

T-47D cells [1] = experiment: Inhibition of [3H] estrone-3-sulfate uptake by T-47D cells
Method: The cell suspension and a solution containing a radiolabeled test compound in the transport medium were separately incubated at 37° C. for 20 min, then transport was initiated by mixing them. […] Each cell pellet was solubilized in 3 N KOH, and neutralized with HCl. Then, the associated radioactivity was measured by means of a liquid scintillation counter using Clearsol-1 (Nacalai tesque) as a liquid scintillation fluid.
To characterize the substrate specificity of the transport system, the inhibitory effects of hormones, their conjugated metabolites, and various organic compounds on [^3H] estrone-3-sulfate uptake by T-47D cells were examined. The results are shown in (Table 1). In Table 1, values in control (%) are indicated as the ratio in comparison to uptake amount of estrone-3-sulfate in control which was set at 100%. Each value represents the mean±S.E.M. (n=4), and *P<0.05 indicates comparison to control (Student's test).

T-47D cells [2] = experiment: Uptake of estrone-3-sulfate by T-47D cells (time course, cation and concentration dependence); conditions: 5.1 nM to 50 μM, 37° C., 10 min, saturable uptake; mean±S.E.M.
Method: Cultured T-47D cells were incubated at 37° C. over 35 min in medium containing [^3H] estrone-3-sulfate (7.1 nM) with (open circles) or without (closed circles) 1 mM unlabeled estrone-3-sulfate. Each value represents the mean±S.E.M. (n=4). When the error bars are not shown, they are smaller than the symbols.
The uptake rate of [^3H] estrone-3-sulfate (7.1 nM) for 10 min was measured in the presence or absence of extracellular Na^+. Extracellular Na^+ was replaced with K^+, Li^+, or N-methylglucamine^+ (NMG^+). Each value represents the mean±S.E.M. (n=4).
The uptake of estrone-3-sulfate at various concentrations, ranging from 5.1 nM to 50 μM, was measured at 37° C. for 10 min. […]
Transport experiments were performed as described previously (Tamai et al., 2001). […] Then, the associated radioactivity was measured by means of a liquid scintillation counter using Clearsol-1 (Nacalai tesque) as a liquid scintillation fluid.
(§1) Cellular protein content was determined according to the method of Bradford by using a BioRad protein assay kit (Hercules) with bovine serum albumin as the standard (Bradford, 1976). […] All data were expressed as means±S.E.M., and statistical analysis was performed by the use of Student's t test with P<0.05 as the criterion of significance. […]

T-47D cells [3] = experiment: T-47D cell proliferation assay
Method: (a) T-47D cells were seeded at a density of 8,000 cells/well and cultured. 24 hours after seeding (day 1), estradiol (1 pM, closed triangles), estrone-3-sulfate (100 nM, closed circles), DMSO (0.1, open triangles) or water (open circles) was added. After the designated number of days, T-47D cells were trypsinized and counted.
(b) T-47D cells were proliferated in the presence of various concentrations of estradiol (closed triangles) or estrone-3-sulfate (closed circles), ranging from 10^−16 to 10^−11 M, or from 10^−11 to 10^−6 M, respectively. The cell numbers were counted at day 6 after seeding. Each value represents the mean±S.E.M. (n=3).
T-47D cells were routinely proliferated in RPMI 1640 medium (Sigma Chemicals) containing phenol red and 10% FCS in a humidified incubator at 37° C. and 5% CO2. For the proliferation assay, FCS was incubated with 0.5% dextran-coated charcoal (DCC) at 4° C. overnight, then the medium was decanted and DCC was filtered off (0.2 μm) to remove steroid hormones. This procedure was repeated three times. Then T-47D cells were seeded into 96-well plates at a density of 8,000 cells/well in phenol red-free RPMI 1640 medium containing 2.5% DCC-treated FCS. […] At designated days after seeding, the cells were treated with trypsin, and cell numbers were counted.

T-47D cells [4] = experiment: Uptake of DHEAS by T-47D cells (time course, concentration dependence); conditions: 10.3 nM to 100 μM, 37° C., 10 min, saturable uptake
Method: The uptake of DHEAS at various concentrations, ranging from 10.3 nM to 100 μM, was measured at 37° C. for 10 min. The saturable uptake was obtained after subtraction of the uptake in the presence of excess of unlabeled DHEAS (5 mM) and used for the evaluation of kinetic constants by nonlinear least-squares analysis. […] Each value represents the mean±S.E.M. (n=4). When the error bars are not shown, they are smaller than the symbols.
Transport experiments were performed as described previously (Tamai et al., 2001). After cultivation of T-47D cells in 15 cm dishes, the cells were harvested and suspended in the transport medium containing 125 mM NaCl, 4.8 mM KCl, 5.6 mM D-glucose, 1.2 mM CaCl2, 1.2 mM KH2PO4, 1.2 mM MgSO4 and 25 mM Hepes, adjusted to pH 7.4. […] Then, the associated radioactivity was measured by means of a liquid scintillation counter using Clearsol-1 (Nacalai tesque) as a liquid scintillation fluid.
as §1

[5] = inhibitor 100 μM, mean±S.E.M. (n=4)
[6] = inhibitor 1000 μM, mean±S.E.M. (n=4)
[7] = inhibitor 5 μM, mean±S.E.M. (n=4)
[8] = inhibitor 50 μM, mean±S.E.M. (n=4)

Compound | [3H] estrone-3-sulfate uptake, Control (%) (T-47D cells [1]; [5]) | [3H] estrone-3-sulfate uptake, Control (%) (T-47D cells [1]; [6]) | [3H] estrone-3-sulfate uptake, Control (%) (T-47D cells [1]; [7]) | [3H] estrone-3-sulfate uptake, Control (%) (T-47D cells [1]; [8]) | inhibitory effect on [3H] estrone-3-sulfate uptake, in words (T-47D cells [1]; concentration not given) | other results
O=C1OC(c2ccc(O)c(S(=O)(=O)O)c2)(c2ccc(O)c(S(=O)(=O)O)c2)c2c(Br)c(Br)c(Br)c(Br)c21 [Bromosulfophtalein] | 18.9 ± 2.8 * % | 14.2 ± 1.2 * % | – | – | – | cell proliferation of MCF-7 cells with 100 μM BSP (MCF-7 cells; 100 μM BSP added simultaneously, low estrone-3-sulfate concentration): cell proliferation promoting effect was observed; cell proliferation promoting effect by BSP (MCF-7 cells; 100 μM BSP plus 10 μM estrone-3-sulfate): inhibited; cell proliferation promoting effect by BSP (MCF-7 cells; 100 μM BSP plus estradiol): no change; [3H] estrone-3-sulfate uptake, Control (%) (T-47D cells [1]; inhibitor 100 μM, mean±S.E.M. (n=4), listed as bromosulfophthalein): 18.9%
C[C@]12CC[C@H](O)CC1=CC[C@@H]1[C@@H]2CC[C@]2(C)C(=O)CC[C@@H]12 [Dehydroepiandrosterone] | – | – | 75.6 ± 3.8 * % | 44.8 ± 8.0 * % | – | –
C[C@H]1O[C@@H](O[C@H]2[C@@H](O)C[C@H](O[C@H]3[C@@H](O)C[C@H](O[C@H]4CC[C@@]5(C)[C@H](CC[C@@H]6[C@@H]5C[C@@H](O)[C@]5(C)[C@@H](C7=CC(=O)OC7)CC[C@]65O)C4)O[C@@H]3C)O[C@@H]2C)C[C@H](O)[C@@H]1O [Digoxin] | – | – | – | – | no effect | [3H] estrone-3-sulfate uptake, Control (%) (T-47D cells [1]; inhibitor 100 μM, DMSO 1%, vs Control (DMSO 1%)): 90.3 ± 3.5%; [3H] estrone-3-sulfate uptake, Control (%) (T-47D cells [1]; inhibitor 1000 μM, DMSO 1%, vs Control (DMSO 1%)): 94.8 ± 4.4%
C[C@]12CC[C@@H]3c4ccc(O)cc4CC[C@H]3[C@@H]1CC[C@@H]2O[C@@H]1O[C@H](C(=O)O)[C@@H](O)[C@H](O)[C@H]1O [Estradiol-17β-glucuronide] | – | – | 73.8 ± 8.7% | 90.4 ± 11.5% | – | inhibitory effect on [3H] estrone-3-sulfate uptake, in words (T-47D cells [1]; 50 μM): no effect
C[C@]12CC[C@@H]3c4ccc(O)cc4CC[C@H]3[C@@H]1CC[C@@H]2O [Estradiol] | – | – | 76.9 ± 4.8 * % | 45.7 ± 5.3 * % | – | –
C[C@]12CC[C@@H]3c4ccc(OS(=O)(=O)O)cc4CC[C@H]3[C@@H]1CCC2=O [Estrone-3-sulfate] | – | – | 34.7 ± 4.3 * % | 6.6 ± 0.9 * % | – | Km (T-47D cells [2]): 3.9 ± 0.78 µM; Vmax of estrone-3-sulfate uptake (T-47D cells [2]): 576.3±32.9 pmol/mg protein/10 min; proliferation of T-47D cells compared with solvent alone (T-47D cells [3]; 100 nM): stimulated; EC50 (T-47D cells [3]; 6 days after seeding, nonlinear regression analysis, read-out: median effective concentration (EC50), stimulation of T-47D proliferation): ~17.1 nM and 17.1 nM; cell proliferation promoting effect on MCF-7 cells (MCF-7 cells; estrogen only (positive control), 3 days): cell proliferation promoting effect was observed; [3H] estrone-3-sulfate uptake, Control (%) (T-47D cells [1]; inhibitor 5 μM, mean±S.E.M. (n=4), listed as estrone-3-sulfate): 34.7%; [3H] estrone-3-sulfate uptake, Control (%) (T-47D cells [1]; inhibitor 50 μM, mean±S.E.M. (n=4), listed as estrone-3-sulfate): 6.6%
C[C@]12CC[C@@H]3c4ccc(O)cc4CC[C@H]3[C@@H]1CCC2=O [Estrone] | – | – | 78.8 ± 3.3 * % | 64.8 ± 7.5 * % | – | –
CC1(C)S[C@@H]2[C@H](NC(=O)Cc3ccccc3)C(=O)N2[C@H]1C(=O)O [Penicillin G] | 83.2 ± 2.0 * % | 75.9 ± 10.5% | – | – | slight inhibitory effects | –
CCCN(CCC)S(=O)(=O)c1ccc(C(=O)O)cc1 [Probenecid] | 103.2 ± 10.2% | 79.1 ± 3.8 * % | – | – | slight inhibitory effects | –
O=C(O)c1ccccc1O [Salicylate] | 94.9 ± 6.0% | 82.7 ± 7.3% | – | – | no effect | –
C[C@H](CCC(=O)NCCS(=O)(=O)O)[C@H]1CC[C@H]2[C@@H]3[C@H](O)C[C@@H]4C[C@H](O)CC[C@]4(C)[C@H]3C[C@H](O)[C@]12C [Taurocholic acid] | 69.3 ± 2.7 * % | 24.1 ± 2.3 * % | – | – | – | [3H] estrone-3-sulfate uptake, Control (%) (T-47D cells [1]; inhibitor 100 μM, mean±S.E.M. (n=4), listed as taurocholic acid): 69.3%
CC[N+](CC)(CC)CC [Tetraethylammonium] | 87.4 ± 1.5 * % | 112.7 ± 18.6% | – | – | no effect | –
Nc1ccc(C(=O)NCC(=O)O)cc1 [p-Aminohippuric acid] | 87.8 ± 1.5% | 112.7 ± 18.6% | – | – | no effect | –
Dehydroepiandrosterone sulfate | – | – | 66.4 ± 5.7 * % | 27.0 ± 7.6 * % | – | Km (T-47D cells [4]): 62.5 ± 21.1 µM; Vmax of DHEAS uptake (T-47D cells [4]): 1893±315.7 pmol/mg protein/10 min; [3H] estrone-3-sulfate uptake, Control (%) (T-47D cells [1]; inhibitor 50 μM, mean±S.E.M. (n=4), listed as DHEAS): 44.8%
